Reference: US10413505B1, “Pharmaceutical compositions and methods of using the same” (priority 2017, dated 2019)

How the values were obtained:
[1] = Example 2 urinary pharmacokinetics, normal renal function vs severe renal impairment; details: single intranasal 160 mg cocaine HCl; for 0 to 32 hour urinary recovery (geometric mean) / 0 to 32 hour urinary recovery (mean) / 0 to 32 hour urinary recovery (median): metabolites as cocaine equivalents
Procedure: For the urine analysis of cocaine, BE, and EME, individual urinary recoveries for each analyte were determined over each collection interval as the product of the urine concentration times the urine volume. The total recoveries were determined as the sum of the recoveries over all the intervals. Total urinary recoveries were also expressed as the percentage of the administered dose, after correction for the molecular weight of each analyte. The renal clearances of cocaine, BE, and EME were determined as the urinary recovery (in μg) divided by the plasma AUC over the same time interval (the longest period for which both plasma and urine measurements were available).
Urine was collected prior to dosing and from 0-2, 2-4, 4-8, 8-12, 12-24, and 24-32 hours after the beginning of dose application. […] Testing methods used were consistent with those used by inVentiv Health Clinical Lab, Inc., Miami, Fla., U.S.A. Urinary pharmacokinetic parameters included total urinary recovery (μg), urinary recovery as a percentage of dose, and CLr.

[2] = Example 3 plasma pharmacokinetics, normal hepatic function vs hepatic impairment
[3] = severe renal impairment, listed as Ecgonine Methyl Ester
[4] = normal hepatic function, single intranasal 160 mg cocaine HCl, plasma
[5] = plasma, subjects with hepatic impairment, single intranasal dose

## COC(=O)[C@@H]1[C@H]2CC[C@@H](C[C@@H]1O)N2C [EME, ecgonine methyl ester]
[1]; normal renal function
  0-32 h Urinary Recovery (geometric mean): 894.9 µg
  0-32 h Urinary Recovery (mean): 1095 µg
  0-32 h Urinary Recovery (median): 892.8 µg
  Renal Clearance, CLr (geometric mean): 18.1 L/h
  Renal Clearance, CLr (mean): 19.1 L/h
  Renal Clearance, CLr (median): 21.4 L/h
  Renal Clearance, geometric mean: 302.2 mL/min
  Renal Clearance, mean: 317.8 mL/min
  Renal Clearance, median: 356.1 mL/min
  0 to 32 hour urinary recovery (geometric mean): 0.954 % of administered dose
  0 to 32 hour urinary recovery (mean): 1.17 % of administered dose
  0 to 32 hour urinary recovery (median): 0.952 % of administered dose
[1]; normal renal function, listed as Ecgonine Methyl Ester
  0 to 32 hour urinary recovery (mean): 1.167 % of administered dose
[1]; severe renal impairment
  0-32 h Urinary Recovery (geometric mean): 1177.8 µg
  0-32 h Urinary Recovery (mean): 1425 µg
  0-32 h Urinary Recovery (median): 1104 µg
  Renal Clearance, CLr (geometric mean): 4.23 L/h
  Renal Clearance, CLr (mean): 4.95 L/h
  Renal Clearance, CLr (median): 4.05 L/h
  Renal Clearance, geometric mean: 70.6 mL/min
  Renal Clearance, mean: 82.5 mL/min
  Renal Clearance, median: 67.6 mL/min
  0 to 32 hour urinary recovery (geometric mean): 1.26 % of administered dose
  0 to 32 hour urinary recovery (mean): 1.52 % of administered dose
  0 to 32 hour urinary recovery (median): 1.177 % of administered dose
[1]; [3]
  0 to 32 hour urinary recovery (geometric mean): 1.255 % of administered dose
  0 to 32 hour urinary recovery (mean): 1.519 % of administered dose
[2]; Grade B hepatic impairment
  AUClast, times higher than normal subjects: approximately 2.4 times
[2]; Grade C hepatic impairment
  AUClast, times higher than normal subjects: 2.2 times
[2]; [4]
  AUC0→t (Geometric mean): 61.2 ng·h/mL
  AUC0→t (Max): 198 ng·h/mL
  AUC0→t (Mean): 72.9 ng·h/mL
  AUC0→t (Median): 59.1 ng·h/mL
  AUC0→t (Min): 24.5 ng·h/mL
  AUC0→∞ (Geometric mean): 76.1 ng·h/mL
  AUC0→∞ (Max): 212 ng·h/mL
  AUC0→∞ (Mean): 89.6 ng·h/mL
  AUC0→∞ (Median): 72.9 ng·h/mL
  AUC0→∞ (Min): 31.5 ng·h/mL
  Clast (Geometric mean): 1.67 ng/mL
  Clast (Max): 3.72 ng/mL
  Clast (Mean): 1.85 ng/mL
  Clast (Median): 1.60 ng/mL
  Clast (Min): 1.00 ng/mL
  Cmax (Geometric mean): 8.75 ng/mL
  Cmax (Max): 26.8 ng/mL
  Cmax (Mean): 10.0 ng/mL
  Cmax (Median): 7.81 ng/mL
  Cmax (Min): 3.83 ng/mL
  Tlast (Geometric mean): 15.4 h
  Tlast (Max): 28.0 h
  Tlast (Mean): 16.5 h
  Tlast (Median): 12.0 h
  Tlast (Min): 600 min
  Tmax (Geometric mean): 1.33 h
  Tmax (Max): 3.00 h
  Tmax (Mean): 1.45 h
  Tmax (Median): 1.25 h
  Tmax (Min): 30 min
  t1/2 (Geometric mean): 5.99 h
  t1/2 (Max): 9.97 h
  t1/2 (Mean): 6.27 h
  t1/2 (Median): 5.69 h
  t1/2 (Min): 250 min
[2]; [5]
  AUC0→t (Geometric mean): 146 ng·h/mL
  AUC0→t (Mean): 185 ng·h/mL
  AUC0→t (Median): 140 ng·h/mL
  AUC0→∞ (Geometric mean): 212 ng·h/mL
  AUC0→∞ (Mean): 233 ng·h/mL
  AUC0→∞ (Median): 185 ng·h/mL
  Clast (Geometric mean): 1.57 ng/mL
  Clast (Mean): 1.65 ng/mL
  Clast (Median): 1.67 ng/mL
  Cmax (Geometric mean): 11.3 ng/mL
  Cmax (Mean): 16.1 ng/mL
  Cmax (Median): 9.11 ng/mL
  Tlast (Geometric mean): 26.3 h
  Tlast (Mean): 27.7 h
  Tlast (Median): 32.0 h
  Tmax (Geometric mean): 2.90 h
  Tmax (Mean): 3.84 h
  Tmax (Median): 4.00 h
  t1/2 (Geometric mean): 8.67 h
  t1/2 (Mean): 9.26 h
  t1/2 (Median): 8.3 h
